Test results: paper PMC7763995 (Molecules, 2020)

Columns and labels:
[1] = biological target: T1, Equine serum BChE (Equus caballus, UniProt P81908); assay: biochemical
T1 construct: equine serum BChE; purchased Sigma-Aldrich; host or cells: equine serum
Procedure: (§1) Measurements were performed with a FLUOStar Optima microplate reader (BMG Labtech, Ortenberg, Germany). Compounds were dissolved in DMSO, the incubation mixture contained 2% solvent.

[2] = biological target: T2, Human erythrocyte AChE (Homo sapiens, UniProt P22303); assay: biochemical
T2 construct: AChE from human erythrocytes was used; purchased Sigma-Aldrich; host or cells: human erythrocytes
T2 sequence (P22303 32-617 isoform P22303-2 limits assumed): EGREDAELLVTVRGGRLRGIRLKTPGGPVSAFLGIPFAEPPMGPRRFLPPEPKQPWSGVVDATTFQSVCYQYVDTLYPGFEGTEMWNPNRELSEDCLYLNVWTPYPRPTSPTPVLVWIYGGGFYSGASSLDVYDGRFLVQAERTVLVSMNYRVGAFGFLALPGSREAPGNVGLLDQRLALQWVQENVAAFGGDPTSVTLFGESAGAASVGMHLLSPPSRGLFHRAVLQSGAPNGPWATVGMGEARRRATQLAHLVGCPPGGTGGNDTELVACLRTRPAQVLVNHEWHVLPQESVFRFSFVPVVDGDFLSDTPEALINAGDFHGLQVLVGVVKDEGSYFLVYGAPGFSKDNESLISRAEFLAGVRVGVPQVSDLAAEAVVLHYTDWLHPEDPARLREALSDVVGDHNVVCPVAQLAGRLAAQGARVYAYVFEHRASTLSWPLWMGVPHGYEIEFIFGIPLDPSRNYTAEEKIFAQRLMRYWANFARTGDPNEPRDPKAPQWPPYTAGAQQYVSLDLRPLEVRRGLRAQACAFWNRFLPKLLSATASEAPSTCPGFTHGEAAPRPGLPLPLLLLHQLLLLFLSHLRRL
Procedure: as §1

[3] = system: Porcine liver CES; assay: In vitro CES inhibition, 4-NPA substrate; assay type: biochemical; conditions: compound concentration 20 µM; n.a. = not active
Procedure: as §1

[4] = biological target: T3, EeAChE PAS (Electrophorus electricus, UniProt O42275); assay type: binding; conditions: compound concentration 20 µM
T3 construct: Electric eel AChE (EeAChE, type VI-S, lyophilized powder); purchased Sigma-Aldrich type VI-S; host or cells: electric eel
T3 sequence (O42275 24-633): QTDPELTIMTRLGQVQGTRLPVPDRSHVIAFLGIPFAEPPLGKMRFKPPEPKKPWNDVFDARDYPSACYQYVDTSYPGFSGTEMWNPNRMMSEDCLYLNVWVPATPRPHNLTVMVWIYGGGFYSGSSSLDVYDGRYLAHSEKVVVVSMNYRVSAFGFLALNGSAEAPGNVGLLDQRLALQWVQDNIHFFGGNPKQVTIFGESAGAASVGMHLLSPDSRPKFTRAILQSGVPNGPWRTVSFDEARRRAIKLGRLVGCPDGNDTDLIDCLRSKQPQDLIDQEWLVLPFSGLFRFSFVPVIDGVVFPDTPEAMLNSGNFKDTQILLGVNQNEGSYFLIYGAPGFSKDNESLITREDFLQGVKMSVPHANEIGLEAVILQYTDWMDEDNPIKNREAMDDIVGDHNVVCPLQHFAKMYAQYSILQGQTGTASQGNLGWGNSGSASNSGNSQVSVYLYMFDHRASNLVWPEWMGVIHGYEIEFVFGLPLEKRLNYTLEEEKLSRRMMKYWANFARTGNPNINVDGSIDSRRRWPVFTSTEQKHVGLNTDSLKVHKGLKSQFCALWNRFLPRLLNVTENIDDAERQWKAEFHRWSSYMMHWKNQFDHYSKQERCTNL
Procedure: Electric eel AChE (EeAChE, type VI-S, lyophilized powder, Sigma-Aldrich, Saint Louis, MO, USA) was used owing to its high degree of purification, high activity, and lower cost compared to human AChE.
The blank contained propidium iodide of the same concentration in 1 mM Tris-HCl buffer pH 8.0. The measurements were carried out in triplicate on a FLUOStar Optima microplate reader, and the results were calculated by formula (1):% Displacement = 100 − (IFAChE+ Propidium + inhibitor / IFAChE + Propidium) × 100(1) where IFAChE + Propidium is the fluorescence intensity of the propidium associated with AChE in the absence of the test compound (taken as 100%), and IFAChE + Propidium + inhibitor is the fluorescence intensity of the propidium associated with AChE in the presence of the test compound.

[5] = ABTS radical cation scavenging activity assay
Procedure: Radical scavenging activity of the compounds was assessed using the ABTS radical decolorization assay with some modifications. ABTS was purchased from Tokyo Chemical Industry Co., Ltd. (Tokyo, Japan), potassium persulfate (dipotassium peroxodisulfate), Trolox (6-hydroxy-2,5,7,8-tetramethychroman-2-carboxylic acid), and HPLC-grade ethanol were obtained from Sigma-Aldrich. Aqueous solutions were prepared using deionized water.
The solution of cation radical ABTS^•+ was produced by incubation of ABTS with potassium persulfate in deionized water for 12–16 h at room temperature in the dark. Radical scavenging capacity of the compounds was analyzed by mixing 10 μL of compound with 240 μL of ABTS^•+ working solution in ethanol (100 μM final concentration). The reaction was monitored for an hour with an interval of 5–10 min. Data are given for 1 h of incubation of compounds with ABTS^•+. The reduction in absorbance was measured spectrophotometrically at 734 nm using a xMark microplate UV/VIS microplate spectrophotometer (Bio-Rad, Hercules, CA, USA).
Ethanol blanks were run in each assay. Values were obtained from three replicates of each sample and three independent experiments. Standard antioxidants Trolox and BHT were used as reference compounds.
Antioxidant capacity as Trolox equivalent (TEAC) values was determined as the ratio between the slopes obtained from the linear correlation of the ABTS radical absorbance with the concentrations of tested compounds and Trolox. […] The compounds were tested in the concentration range of 0.1–100 µM.

[6] = FRAP (ferric reducing antioxidant power) assay; conditions: 20 µM, 1 h incubation; ratio of concentrations of Trolox and test compound with same effect
Procedure: The FRAP (ferric reducing antioxidant power) assay proposed by Benzie and Strain [80, 81] was modified to be performed in 96-well microplates. The FRAP reagent contained 2.5 mL of 10 mM TPTZ (2,4,6-tris(2-pyridyl)-s-triazine (Sigma-Aldrich) solution in 40 mM HCl, 2.5 mL of 20 mM FeCl3 (Sigma-Aldrich) in distilled water and 25 mL of 0.3 M acetate buffer (pH 3.6). In 96-well microplates, 10 µL aliquots of the substance under investigation (compounds 7, 8 or reference substance) dissolved in DMSO (0.5 mM) were placed in quadruplicate. The FRAP reagent (240 µL) freshly prepared and warmed to 37°C was added to three of these samples, while the same volume of acetate buffer was added to the fourth one (blank). Consequently, the concentration of the substance in a plate was 20 µM. The absorbance at 600 nm was monitored spectrophotometrically with a FLUOStar OPTIMA microplate reader at 37°C for an hour with an interval of 5–10 min. Data in Table 2 are given for 1 h of incubation of compounds with FRAP reagent. The absorbances of the blanks and those of the mixture of 240 µL FRAP reagent plus 10 µL DMSO were subtracted from the absorbances of the samples at each time interval to calculate the absorbance change. Standard antioxidants Trolox and BHT dissolved in DMSO and analyzed as described above were used as reference compounds. A calibration curve with linear formula y = 0.03x (R^2 = 0.998, p < 0.0001) was obtained for Trolox solution in DMSO in the range 2.5–100 µM and the results were expressed as FRAP units (the values calculated as the ratio of the concentrations of Trolox and the test compound resulting in the same effect.)

[7] = system: mouse brain homogenate; assay: Luminol chemiluminescence assay in mouse brain homogenate (TBHP-initiated); conditions: compound concentration 20 µM; mice brain homogenate
Procedure: (§2) The work was carried out in accordance with the EU Directive 2010/63/EU. Hybrid BDF1 mice (about 6 months old) were sacrificed by decapitation. Each brain was rapidly excised, frozen in liquid nitrogen, and stored at −80°C until use. The brains were thawed and homogenized using a Wisd WiseTis HG-15D homogenizer for 2 min in a buffer (0.01 M PBS, pH 7.4 or 0.1 M Tris-HCl, pH 7.4). Protein concentrations were determined by the Lowry method.
Luminol-dependent chemiluminescence produced by mouse brain homogenates was measured using a 1250 Luminometer (LKB Wallac, Turku, Finland) according to the assay by Di Meo et al. with minor modifications. The reaction mixture consisted of mouse brain homogenate (protein concentration 0.1 mg/mL) in 0.1 M Tris-HCl (Sigma-Aldrich), pH 7.4, luminol (Sigma-Aldrich) (0.05 mM), TBHP (Sigma-Aldrich) (0.073 M) and tested compounds at a concentration of 20 μM. This was placed in a light-proof luminometer chamber and the background reading was recorded. All measurements were carried out at 37°C. The gain control was set to give a reading of 10 mV using a built-in standard. The free radical content in mouse brain homogenate was evaluated by the change in the light sum (the area under the kinetic curve of luminescence intensity for the entire luminescence time). All compounds were examined at least in triplicate. The effects of tested compounds were measured as the percentage decrease in the light sum relative to the control (a sample with no compound added).

[8] = system: mouse brain homogenate; assay: TBARS assay, spontaneous lipid peroxidation in mouse brain homogenate; conditions: read-out: Inhibition of Spontaneous Lipid Peroxidation in Mice Brain Homogenate, TBARS Assay, IC50
Procedure: as §2
The procedure was performed in accordance with the method of Ohkawa et al. with minor modifications. Briefly, mouse brain homogenate (protein concentration 1 mg/mL) in PBS (0.1 M, pH 7.4) was incubated for 30 min at 37°C with tested conjugates, and the reaction was terminated by addition of 0.4 mL of 17% (w/v) trichloroacetic acid (Sigma-Aldrich). Following centrifugation for 20 min at 1300× g, 0.5 mL of 0.8% (w/v) of TBA (Sigma-Aldrich) was added to 1 mL of supernatant, heated for 30 min at 95°C and then cooled to RT. The optical density of the TBARS, which corresponds to the produced MDA, was measured at 532 nm against a blank using an Agilent Cary 60 UV-Vis spectrophotometer (Agilent, Santa Clara, CA, USA). The MDA concentration was calculated using an extinction coefficient of 1.56 × 10^5 M^−1cm^−1. Trolox and BHT were used as reference antioxidants. Compounds were dissolved in DMSO (Sigma-Aldrich) and tested in a concentration range 0.01–100 μM. All compounds were examined at least in triplicate.

[9] = system: AChE-induced Aβ aggregation; set-up: method as in PMID 12527333; conditions: at 100 μM; cited from earlier work
[10] = system: AChE; set-up: method as in PMID 15658850; conditions: read-out: anti-AChE activity, IC50; cited from earlier work
[11] = system: AChE-induced Aβ aggregation; set-up: method as in PMID 15658850; conditions: cited from earlier work

T1 sequence (P81908 whole entry): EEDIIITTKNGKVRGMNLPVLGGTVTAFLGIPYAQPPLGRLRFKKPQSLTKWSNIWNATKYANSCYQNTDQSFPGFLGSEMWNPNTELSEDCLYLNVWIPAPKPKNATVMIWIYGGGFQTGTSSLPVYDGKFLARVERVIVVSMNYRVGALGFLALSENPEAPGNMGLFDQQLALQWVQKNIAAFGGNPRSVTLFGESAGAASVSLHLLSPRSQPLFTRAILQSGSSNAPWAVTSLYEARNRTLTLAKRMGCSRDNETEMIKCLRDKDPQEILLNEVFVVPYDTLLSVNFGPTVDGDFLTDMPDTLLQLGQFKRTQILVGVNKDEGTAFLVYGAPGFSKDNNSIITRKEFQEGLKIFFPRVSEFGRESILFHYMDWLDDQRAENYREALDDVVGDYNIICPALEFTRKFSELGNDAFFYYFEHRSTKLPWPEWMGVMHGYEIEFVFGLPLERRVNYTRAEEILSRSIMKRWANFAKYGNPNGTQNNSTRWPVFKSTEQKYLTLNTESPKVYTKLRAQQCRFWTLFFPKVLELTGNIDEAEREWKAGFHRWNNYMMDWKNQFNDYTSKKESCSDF

Compound: CC(C)(C)c1cc(CNCCNc2c3c(nc4ccccc24)CCCCC3)cc(C(C)(C)C)c1O [Compound 8c, 2,6-Di-tert-butyl-4-{[2-(7,8,9,10-tetrahydro-6H-cyclohepta[b]quinolin-11-ylamino)-ethylamino]-methyl}-phenol]
- IC50 [1]: 0.084 ± 0.008 µM
- IC50 [2]: 1.9 ± 0.16 µM
- Porcine Liver CES, (%) inhibition [3]: 26.0 ± 1.9%
- Displacement of Propidium from EeAChE PAS (%) [4]: 13.6 ± 1.2%
- Time of maximum binding of the ABTS radical [5]: 5 min
- IC50 ([5]; 1 h incubation): 14.1 ± 0.8 µM
- ABTS^•+-Scavenging Activity, TEAC ([5]; ratio of slopes test compound/Trolox, 1 h incubation): 1.35 ± 0.04
- Ferric Reducing Antioxidant Power, FRAP Units [6]: 0.80 ± 0.06
- Radical Scavenging Capacity in Luminol Chemiluminescence Assay, Luminescence Inhibition, % [7]: 91.0 ± 0.6%
- IC50 [8]: 9.38 ± 0.12 µM

Compound: CC[N+](C)(CC)CCC[n+]1c(-c2ccccc2)c2cc(N)ccc2c2ccc(N)cc21 [Propidium, propidium]
- Decrease in AChE-induced Aβ aggregation [9]: 82%

Compound: O=C(CCCCC1CCSS1)NCCCNc1c2c(nc3cc(Cl)ccc13)CCCC2 (stereo not shown) [lipocrine]
- IC50 [10]: 0.000253 µM
- IC50 [11]: 45 µM
